Results taken from patent US4650801A, “Anti-cancer compositions for delivering 5-fluorouracil” (Taiho Pharmaceutical Company, Ltd., priority 1978, dated 1987).
“And” between values parts separate entries of the source, which are not always exact repeats. Equal entries are not always repeated. Where two headings read alike, the source gives them in different places.

Assays:
AH 130 tumor = details: rat, in vivo
Method: ^3H-FT- 207(300 μ Ci/Kg) with cytosine were suspended in 5% acasia solution and administered orally to AH 130 bearing rats through a stomach tube, each of 3 rats/group. […] The rat were sacrified at various periods, the tumors were removed and used for analysis. Tumor were homogenized in a equal volume of saline, 1.0 ml of each sample was suspended in 7 volumes of cold methanol and centrifuged at 3000 rpm for 10 min. The precipitate was washed twice with 2 volumes of cold methanol and the mixture was centrifuged. The supernatant was combined with first supernatant and dried under nitrogen. […] Samples were mixed with 10 ml of scintillator containing 4 g of 2,5-diphenyloxazole, 0.4 g of 1,4-bis-[2-(4-methyl-5-phenyloxazolyl)]benzene and 100 g of naphthalene per liter of solvent composed of dioxane: toluene: ethylcellosolve=15:3:2 (v/v/v), and the radio activity was measured with Aloka LSC 673 liquid scintillation spectrometor.

sarcoma 180 = experiment: Anti-cancer effect on subcutaneously transplanted sarcoma 180 in mice; assay type: in vivo, mouse
Method: The anti-cancer compositions of this invention are tested in mice by the following methods to determine acute toxicity, anti-cancer effect and therapeutic index
Tissues of sarcoma 180, 2×10^6, are subcutaneously transplanted in the back of male mice of ICR strain (6 mice in each group). A 5-fluorouracil (a) and uracil derivative (b) in the proportions listed in Tables 1-16 are suspended in a 5% solution of gum arabic to prepare a suspension. Twenty-four hours after the transplantation and during the following seven consecutive days the suspension is orally given to the animal once every day. On the 10th day after the transplantation, the tumor is removed from the body and weighed to calculate the average weight (T) of the tumors in the group to which the composition has been given and the corresponding weight (C) in the control group to determine the ratio T/C.

[1] = oral anti-cancer agent; cited from earlier work
[2] = cited from earlier work

## Nc1ccn([C@H]2C[C@H](O)[C@@H](CO)O2)c(=O)n1 [2'-Deoxycytidine]
AH 130 tumor; 60 min
  Concentration of 5-FU in cancer tissues: 0 ng/mL
AH 130 tumor; 120 min
  Concentration of 5-FU in cancer tissues: 0 ng/mL
AH 130 tumor; 240 min
  Concentration of 5-FU in cancer tissues: 0 ng/mL
AH 130 tumor; 480 min
  Concentration of 5-FU in cancer tissues: 0 ng/mL

## O=c1[nH]c(=O)n(C2CCCO2)cc1F (stereo not drawn) [Compound 5, 1-(2-Tetrahydrofuryl)-5-fluorouracil]
Sarcoma 180; (b) = 1(2-Tetrahydrofuryl)uracil, (b)/(a) mol ratio 1
  ED50: 99 mg/kg
Sarcoma 180; (b) = 1(2-Tetrahydrofuryl)uracil, (b)/(a) mol ratio 2
  ED50: 38 mg/kg
Sarcoma 180; (b) = 1(2-Tetrahydrofuryl)uracil, (b)/(a) mol ratio 10
  ED50: 34 mg/kg
Sarcoma 180; (b) = 1Acetyluracil, (b)/(a) mol ratio 1
  ED50: 49 mg/kg
Sarcoma 180; (b) = 1Acetyluracil, (b)/(a) mol ratio 2
  ED50: 31 mg/kg
Sarcoma 180; (b) = 1Acetyluracil, (b)/(a) mol ratio 5
  ED50: 16 mg/kg
Sarcoma 180; (b) = 1Cyclohexylcarbamoyluracil, (b)/(a) mol ratio 0.5
  ED50: 113 mg/kg
Sarcoma 180; (b) = 1Cyclohexylcarbamoyluracil, (b)/(a) mol ratio 2
  ED50: 55 mg/kg
Sarcoma 180; (b) = 1Cyclohexylcarbamoyluracil, (b)/(a) mol ratio 5
  ED50: 36 mg/kg
Sarcoma 180; (b) = 1n-Hexylcarbamoyluracil, (b)/(a) mol ratio 0.5
  ED50: 112 mg/kg
Sarcoma 180; (b) = 1n-Hexylcarbamoyluracil, (b)/(a) mol ratio 2
  ED50: 52 mg/kg
Sarcoma 180; (b) = 1n-Hexylcarbamoyluracil, (b)/(a) mol ratio 10
  ED50: 43 mg/kg
Sarcoma 180; (b) = 2'-Deoxycytidine, (b)/(a) mol ratio 1
  ED50: 102 mg/kg
Sarcoma 180; (b) = 2'-Deoxycytidine, (b)/(a) mol ratio 2
  ED50: 69 mg/kg
Sarcoma 180; (b) = 2'-Deoxycytidine, (b)/(a) mol ratio 20
  ED50: 39 mg/kg
Sarcoma 180; (b) = 2'-Deoxyuridine, (b)/(a) mol ratio 0.5
  ED50: 82 mg/kg
Sarcoma 180; (b) = 2'-Deoxyuridine, (b)/(a) mol ratio 2
  ED50: 37 mg/kg
Sarcoma 180; (b) = 2'-Deoxyuridine, (b)/(a) mol ratio 10
  ED50: 28 mg/kg
Sarcoma 180; (b) = 3Benzoyluracil, (b)/(a) mol ratio 1
  ED50: 98 mg/kg
Sarcoma 180; (b) = 3Benzoyluracil, (b)/(a) mol ratio 2
  ED50: 37 mg/kg
Sarcoma 180; (b) = 3Benzoyluracil, (b)/(a) mol ratio 10
  ED50: 30 mg/kg
Sarcoma 180; (b) = 5Bromo-2'-deoxyuridine, (b)/(a) mol ratio 1
  ED50: 54 mg/kg
Sarcoma 180; (b) = 5Bromo-2'-deoxyuridine, (b)/(a) mol ratio 2
  ED50: 24 mg/kg
Sarcoma 180; (b) = 5Bromo-2'-deoxyuridine, (b)/(a) mol ratio 10
  ED50: 17 mg/kg
Sarcoma 180; (b) = 5Bromouracil, (b)/(a) mol ratio 1
  ED50: 55 mg/kg
Sarcoma 180; (b) = 5Bromouracil, (b)/(a) mol ratio 2
  ED50: 26 mg/kg
Sarcoma 180; (b) = 5Bromouracil, (b)/(a) mol ratio 10
  ED50: 23 mg/kg
Sarcoma 180; (b) = 5Iodouracil, (b)/(a) mol ratio 1
  ED50: 32 mg/kg
Sarcoma 180; (b) = 5Iodouracil, (b)/(a) mol ratio 2
  ED50: 17 mg/kg
Sarcoma 180; (b) = 5Iodouracil, (b)/(a) mol ratio 5
  ED50: 12 mg/kg
Sarcoma 180; (b) = Cytidine, (b)/(a) mol ratio 1
  ED50: 98 mg/kg
Sarcoma 180; (b) = Cytidine, (b)/(a) mol ratio 2
  ED50: 70 mg/kg
Sarcoma 180; (b) = Cytidine, (b)/(a) mol ratio 20
  ED50: 28 mg/kg
Sarcoma 180; (b) = Cytosine, (b)/(a) mol ratio 1
  ED50: 108 mg/kg
Sarcoma 180; (b) = Cytosine, (b)/(a) mol ratio 2
  ED50: 66 mg/kg
Sarcoma 180; (b) = Cytosine, (b)/(a) mol ratio 20
  ED50: 27 mg/kg
Sarcoma 180; (b) = Orotic acid, (b)/(a) mol ratio 1
  ED50: 112 mg/kg
Sarcoma 180; (b) = Orotic acid, (b)/(a) mol ratio 2
  ED50: 72 mg/kg
Sarcoma 180; (b) = Orotic acid, (b)/(a) mol ratio 20
  ED50: 59 mg/kg
Sarcoma 180; (b) = Thymidine, (b)/(a) mol ratio 2
  ED50: 94 mg/kg
Sarcoma 180; (b) = Thymidine, (b)/(a) mol ratio 5
  ED50: 42 mg/kg
Sarcoma 180; (b) = Thymidine, (b)/(a) mol ratio 10
  ED50: 40 mg/kg
Sarcoma 180; (b) = Thymine, (b)/(a) mol ratio 1
  ED50: 42 mg/kg
Sarcoma 180; (b) = Thymine, (b)/(a) mol ratio 2
  ED50: 28 mg/kg
Sarcoma 180; (b) = Thymine, (b)/(a) mol ratio 10
  ED50: 14 mg/kg
Sarcoma 180; (b) = Uridine, (b)/(a) mol ratio 0.5
  ED50: 129 mg/kg
Sarcoma 180; (b) = Uridine, (b)/(a) mol ratio 2
  ED50: 55 mg/kg
Sarcoma 180; (b) = Uridine, (b)/(a) mol ratio 10
  ED50: 36 mg/kg
Sarcoma 180; (b)/(a) mol ratio 0 (alone), oral, 50% cancer inhibition (T/C)
  ED50: 140 mg/kg and 134 mg/kg
[1]
  efficacy compared with 5-fluorouracil: somewhat inferior to 5-fluorouracil in efficacy
[2]
  conversion to 5-fluorouracil in vivo: slowly converted to 5-fluorouracil in vivo

## Nc1cc[nH]c(=O)n1 [Cytosine]
AH 130 tumor; 60 min
  Concentration of 5-FU in cancer tissues: 0 ng/mL
AH 130 tumor; 120 min
  Concentration of 5-FU in cancer tissues: 0 ng/mL
AH 130 tumor; 240 min
  Concentration of 5-FU in cancer tissues: 0 ng/mL
AH 130 tumor; 480 min
  Concentration of 5-FU in cancer tissues: 0 ng/mL

## O=c1c(F)cn(C2CCCO2)c(=O)n1C1CCCO1 (stereo not drawn) [FD-1]
AH 130 tumor; 60 min
  Concentration of 5-FU in cancer tissues: 33 ng/mL
AH 130 tumor; 120 min
  Concentration of 5-FU in cancer tissues: 24 ng/mL
AH 130 tumor; 240 min
  Concentration of 5-FU in cancer tissues: 11 ng/mL
AH 130 tumor; 480 min
  Concentration of 5-FU in cancer tissues: 8 ng/mL
